Experimental data taken from US8993760B2, “Rock inhibitors and uses thereof” (University of South Florida, priority 2006, dated 2015).
Where two headings read alike, the source gives them in different places.

Target: Rho-kinase (ROCK1) (Homo sapiens, UniProt Q13464)
Assay: Rho-kinase (ROCK1) inhibition
Assay type: biochemical
Details: for Inhibition / % Inhibition: concentration not given
[1] = Table 3, first number of the cell
[2] = Table 1, first number of the cell
[3] = Table 2, first number of the cell
[4] = read-out: IC50, inhibitory activity against Rho-kinase activity

Chain of Rho-kinase (ROCK1) (Q13464 whole entry, species assumed): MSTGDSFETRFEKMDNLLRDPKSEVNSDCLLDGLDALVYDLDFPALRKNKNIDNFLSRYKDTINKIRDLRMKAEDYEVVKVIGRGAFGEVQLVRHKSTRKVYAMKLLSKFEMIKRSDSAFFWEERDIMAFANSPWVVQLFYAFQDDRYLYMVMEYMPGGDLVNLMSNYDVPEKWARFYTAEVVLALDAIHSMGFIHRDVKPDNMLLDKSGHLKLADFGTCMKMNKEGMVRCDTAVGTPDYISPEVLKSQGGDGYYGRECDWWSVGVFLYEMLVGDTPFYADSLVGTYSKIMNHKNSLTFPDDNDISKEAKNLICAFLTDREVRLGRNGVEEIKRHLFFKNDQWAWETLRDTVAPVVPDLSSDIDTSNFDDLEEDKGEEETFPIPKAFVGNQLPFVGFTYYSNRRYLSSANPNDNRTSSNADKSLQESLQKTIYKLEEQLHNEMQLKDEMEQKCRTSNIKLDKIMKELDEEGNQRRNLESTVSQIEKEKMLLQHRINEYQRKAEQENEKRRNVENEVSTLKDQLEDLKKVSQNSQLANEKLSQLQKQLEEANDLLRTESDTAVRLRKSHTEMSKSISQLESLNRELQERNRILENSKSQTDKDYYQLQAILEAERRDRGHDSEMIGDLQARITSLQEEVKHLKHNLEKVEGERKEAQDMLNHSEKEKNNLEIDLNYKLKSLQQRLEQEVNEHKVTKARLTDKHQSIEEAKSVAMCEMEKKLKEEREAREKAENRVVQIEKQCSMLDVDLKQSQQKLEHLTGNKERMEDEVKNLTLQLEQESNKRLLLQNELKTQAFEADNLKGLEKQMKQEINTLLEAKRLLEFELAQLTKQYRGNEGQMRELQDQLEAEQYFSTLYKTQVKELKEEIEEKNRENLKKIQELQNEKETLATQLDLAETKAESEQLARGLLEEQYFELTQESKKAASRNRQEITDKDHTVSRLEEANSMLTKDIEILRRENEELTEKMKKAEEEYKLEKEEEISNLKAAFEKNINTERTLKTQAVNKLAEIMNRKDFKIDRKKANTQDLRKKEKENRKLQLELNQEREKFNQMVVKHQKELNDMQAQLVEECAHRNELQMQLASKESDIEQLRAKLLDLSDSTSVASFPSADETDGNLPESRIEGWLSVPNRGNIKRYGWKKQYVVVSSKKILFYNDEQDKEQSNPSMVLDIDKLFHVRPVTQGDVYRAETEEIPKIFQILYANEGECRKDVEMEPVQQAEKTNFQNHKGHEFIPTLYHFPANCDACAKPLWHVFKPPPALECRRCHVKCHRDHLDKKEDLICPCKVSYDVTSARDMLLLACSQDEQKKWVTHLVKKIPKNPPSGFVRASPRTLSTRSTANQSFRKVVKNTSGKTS

CCOC(=O)C1CCN(CC(=O)Nc2ccncc2)CC1 [IP-IV-39]
% Inhibition (@ 100 μM) (Table 5): −1.46 (@ 100 μM) %

CC(C)[C@H]1CN(C(=O)c2cccc3cnccc23)CCN1C(=O)OC(C)(C)C [IP-IV-89]
Inhibition [1]: 82

c1ccc(C[C@H]2CN(c3ccnc4ccccc34)CCN2)cc1 [IP-IV-47]
% Inhibition [2]: 43%

CC(C)[C@H]1CN(Cc2cccc3cnccc23)CCN1 [IP-IV-107]
Inhibition [1]: 29 | IC50 (Table 3, read-out: IC50): 22 µM

O=C(CN1CCCN(Cc2ccccc2)CC1)Nc1ccncc1 [IP-IV-73]
% Inhibition (@ 100 μM) (Table 5): 13.31 (@ 100 μM) %

CC(C)[C@H]1CN(C(=O)c2cccc3cnccc23)CCN1 [IP-IV-103]
Inhibition [1]: 81

c1ccc(COC[C@H]2CN(c3ccnc4ccccc34)CCN2)cc1 [IP-IV-49]
inhibitory activity / disruption of Rho-kinase activity (in words): potent disrupters of active Rho-kinase | % Inhibition [2]: 85%

O=C(Nc1ccncc1)OC1CCN(Cc2ccccc2)CC1 [Compound 14b]
IC50 (Table 4, read-out: IC50): 56 µM

CC(C)(C)OC(=O)N1CCN(c2cccc3cnccc23)C[C@@H]1Cc1ccccc1 [IP-IV-41]
inhibitory activity / disruption of Rho-kinase activity (in words): potent disrupters of active Rho-kinase | % Inhibition (@ 100 μM) (Table 1): 9.71% | % Inhibition [2]: 83%

CCOC(=O)C1CCN(C(=O)Nc2ccncc2)CC1 [Compound 7]
Inhibition (@ 100 μM) (Table 4): 6.29 (@ 100 μM)

O=C(Nc1ccncc1)N1CCCN(Cc2ccccc2)CC1 [Compound 9]
Inhibition (@ 100 μM) (Table 4): 21.0 (@ 100 μM)

OC[C@H]1CN(Cc2ccncc2)CCN1 [Compound 2d]
% Inhibition (@ 100 μM) (Table 2): 3.73% | % Inhibition [3]: 20%

O=C1CN(Cc2ccncc2)C(=O)[C@H](Cc2ccccc2)N1 [Compound 1e]
% Inhibition [3]: ~20%

O=C(c1cccc2ncccc12)N1CCNC(Cc2ccccc2)C1 (stereo not drawn) [IP-IV-109 R = O]
Inhibition (@ 100 μM) (Table 3): 1.55 (@ 100 μM)

O=C1CN(Cc2ccccc2)C(=O)[C@H](Cc2ccccc2)N1 [Compound 3e]
% Inhibition (@ 100 μM) (Table 2): 0.75% | % Inhibition [3]: 61%

CSCC[C@H]1CN(Cc2cccc3ccccc23)CCN1 [Compound 6b]
% Inhibition (@ 100 μM) (Table 2): 11.9% | % Inhibition [3]: 62%

O=C(Nc1ccncc1)OC1CCNCC1 [Compound 16b]
inhibitory activity / disruption of Rho-kinase activity (in words): potent disrupters of active Rho-kinase | IC50 [4]: 7.5 µM

O=C1CN(Cc2cccc3ccccc23)C(=O)[C@H](Cc2ccccc2)N1 [Compound 5e]
% Inhibition (@ 100 μM) (Table 2): −1.87% | % Inhibition [3]: 71%

CSCC[C@@H]1NC(=O)CN(Cc2ccccc2)C1=O [Compound 3b]
% Inhibition [3]: 78%

CC(C)(C)OC(=O)N1CCN(c2ccnc3ccccc23)C[C@@H]1Cc1ccccc1 [IP-IV-33]
% Inhibition [2]: 47%

CSCC[C@@H]1NC(=O)CN(Cc2ccncc2)C1=O [Compound 1b]
% Inhibition (@ 100 μM) (Table 2): 1.96% | % Inhibition [3]: 25%

O=C(Nc1ccncc1)N1CCN[C@@H](Cc2ccccc2)C1 [Compound 12b]
inhibitory activity / disruption of Rho-kinase activity (in words): potent disrupters of active Rho-kinase | IC50 [4]: 14 µM

CSCC[C@H]1CN(Cc2ccncc2)CCN1 [Compound 2b]
% Inhibition (@ 100 μM) (Table 2): 4.35% | % Inhibition [3]: 36%

CSCC[C@H]1CN(Cc2ccccc2)CCN1 [Compound 4b]
% Inhibition (@ 100 μM) (Table 2): 0.53% | % Inhibition [3]: 60%

O=C(Nc1ccncc1)N1CCCNCC1 [Compound 10]
Inhibition (@ 100 μM) (Table 4): 16.7 (@ 100 μM)

CC(C)(C)OC(=O)N1CCN(c2ccnc3ccccc23)C[C@@H]1COCc1ccccc1 [IP-IV-35]
% Inhibition [2]: 54%

O=C(Nc1ccncc1)NC1CCNCC1 [Compound 15a]
IC50 (Table 4, read-out: IC50): 55 µM

c1ccc(C[C@H]2CN(Cc3cccc4cnccc34)CCN2)cc1 [IP-IV-29]
Inhibition [1]: 16 IC50 = 16 μM | IC50 (Table 3, read-out: IC50): 16 µM

O=C(Nc1cccc2cnccc12)OC1CCN(Cc2ccccc2)CC1 [IP-IV-115]
% Inhibition (Table 5): 50%

O=C(CN1CCCNCC1)Nc1ccncc1 [IP-IV-81]
% Inhibition (@ 100 μM) (Table 5): 30.61 (@ 100 μM) %

O=C(Nc1cccc2cnccc12)N1CCCN(Cc2ccccc2)CC1 [IP-IV-105]
% Inhibition (@ 100 μM) (Table 5): −0.85 (@ 100 μM) %

c1ccc([C@H]2CN(c3cccc4cnccc34)CCN2)cc1 [IP-IV-67]
% Inhibition [2]: 67% | IC50 (Table 1, read-out: IC50): 3.5 µM

O=C(Nc1ccncc1)N1CCN[C@@H](COCc2ccccc2)C1 [Compound 12a]
Inhibition (@ 100 μM) (Table 4): 9.58

O=C(Nc1cccc2cnccc12)NC1CCCCCC1 [IP-IV-129]
% Inhibition (Table 5): 50%

O=C1CN(Cc2ccncc2)C(=O)[C@H](CO)N1 [Compound 1d]
% Inhibition (@ 100 μM) (Table 2): 1.73% | % Inhibition [3]: 45%

CC(C)(C)OC(=O)N1CCN(c2cccc3cnccc23)C[C@@H]1COCc1ccccc1 [IP-IV-43]
% Inhibition (@ 100 μM) (Table 1): 4.73% | % Inhibition [2]: 49%

Cl.O=C(O)C1CCN(C(=O)Nc2ccncc2)CC1 [Compound 8]
Inhibition (@ 100 μM) (Table 4): 1.59 (@ 100 μM)

c1ccc(C[C@H]2CN(Cc3cccc4ncccc34)CCN2)cc1 [IP-IV-109 R = H2]
IC50 (Table 3, read-out: IC50): 67 µM

CSCC[C@@H]1NC(=O)CN(Cc2cccc3ccccc23)C1=O [Compound 5b]
% Inhibition (@ 100 μM) (Table 2): −1.48% | % Inhibition [3]: 93%

CC(C)(C)OC(=O)N1CCN(C(=O)c2cccc3cnccc23)C[C@@H]1Cc1ccccc1 [IP-III-153]
Inhibition [1]: 91

O=C(Nc1ccncc1)NC1CCN(Cc2ccccc2)CC1 [Compound 14a]
IC50 (Table 4, read-out: IC50): 90 µM

c1ccc(C[C@H]2CN(Cc3cccc4ccccc34)CCN2)cc1 [Compound 6e, N-Naphtylmethyl-3-benzyl piperazine]
inhibitory activity / disruption of Rho-kinase activity (in words): particular effectiveness | % Inhibition (@ 100 μM) (Table 2): 20.4% | % Inhibition [3]: 75%

O=C(c1cccc2cnccc12)N1CCN[C@@H](Cc2ccccc2)C1 [IP-IV-15]
Inhibition [1]: 70
